This note sets out measurements from patent US20240173344A1, “USE OF GABAA RECEPTOR AS TARGET IN PREPARATION OR SCREENING OF DRUG FOR LOWERING BLOOD LIPID LEVEL, TREATING OBESITY, AND/OR IMPROVING METABOLISM” (SHANGHAI INSTITUTE OF ENDOCRINE AND METABOLIC DISEASES, priority 2022, published 2024).

Values joined by “and” are separate entries in the source; they are usually repeats but may differ in a detail not shown here. Identical values can stand only once.

For the assay, the system named is obese mouse model. Put plainly: Intraperitoneal puerarin derivatives in obese mouse model: body weight, blood lipid, jejunal TG. It counts as in vivo, mice. The following applies: for Body weight change percentage, Mean: puerarin derivative-1; for Body weight change percentage: intraperitoneal puerarin derivative-1; for Effect on TG (lipid) absorption in small intestine / Effect on blood lipid level / Effect on body weight of the obese mouse: intraperitoneal injection, result in words; for Blood lipid level / Jejunal TG level: individual obese mice. The source says:
In the present disclosure, the mice were fed with a high-fat diet in which a mass percentage of fat was 60% for 12 weeks, and when a body weight reached 35 g or more, animal models of alimentary obesity were successfully constructed. At a formal stage of the experiment (starting on day 0 in FIG. 1A, FIG. 3A, FIG. 6A, and FIG. 7A), the mice were raised in single cages, during which a daily food intake of each mouse model was accurately recorded, the feces was collected before and after drug intervention, and a daily body weight curve was recorded.
A method for determining TG in a sample was as follows: 20 mg to 30 mg of a sample was first weighed, a 5% NP40-containing lysis buffer was added, and a resulting mixture was homogenated and incubated in a metal bath at 95° C. for 5 min, which was repeated twice. A resulting homogenate was cooled to room temperature and then centrifuged at 15,000 rpm for 2 min to 3 min, and a resulting supernatant was pipetted for determination. A Biovision kit was used to determine TG. 2 μl of the supernatant was added to each well, and after a chromogenic reaction was completed, a value of each well was determined by a microplate reader. TG in the small intestinal tissue was quantified through a standard protein concentration; and a total amount of lipids excreted with the feces was calculated based on a measured value of the feces sample and a total mass of the sample at 24 h.

Setting [1] is: group mean of 8 mice, puerarin derivative-3 group.
Where [2] appears, read: group mean of 10 mice, puerarin derivative-2 group.

For `OCC1OC(c2c(O)ccc3c2OC=C(c2ccc(O)cc2)C3O)C(O)C(O)C1O` (centres unmarked) [Derivative-1], the “Effect on TG (lipid) absorption in small intestine” value (shortened to “Effect on TG (lipid) absorption”) is “inhibit the TG absorption in small intestine”, the “Effect on blood lipid level” value was “effectively reduce blood lipid level” and the “Effect on body weight of the obese mouse” value is “significantly reduce the body weight”. For the same molecule, under “Day 0, group mean of 10 mice”, the “Body weight change percentage, Mean” value is 0.00%. Further, the “Body weight change percentage” value (Day 0, individual obese mice) was found to be 0.00%. Where the note is “Day 1, group mean of 10 mice”, the “Body weight change percentage, Mean” value is −1.88%. Also, the “Body weight change percentage” value (Day 1, individual obese mice) is −0.25% and −2.34% and −2.27% and −3.30% and −2.93% and 0.00% and −2.45% and 0.28% and −2.89% and −2.63%. Further, for the setting “Day 2, group mean of 10 mice”, the “Body weight change percentage, Mean” value is −2.10%. Also, the “Body weight change percentage” value (Day 2, individual obese mice) was −0.74% and −1.86% and −2.56% and −3.79% and −4.32% and −0.26% and −2.20% and 0.00% and −2.62% and −2.63%. For the same molecule, the “Body weight change percentage, Mean” value (Day 3, group mean of 10 mice) was −2.96%. Further, the “Body weight change percentage” value (Day 3, individual obese mice) is −1.24% and −3.06% and −2.56% and −4.04% and −4.32% and −1.55% and −2.45% and −1.14% and −4.53% and −4.77%. Further, under “Day 4, group mean of 10 mice”, the “Body weight change percentage, Mean” value is listed as −3.71%. For the same molecule, the “Body weight change percentage” value (Day 4, individual obese mice) was −0.99% and −3.79% and −3.73% and −6.05% and −4.88% and −3.15% and −3.46% and −2.30% and −4.26% and −4.46%. In addition, the “Body weight change percentage, Mean” value (Day 5, group mean of 10 mice) is −3.61%. The “Body weight change percentage” value (Day 5, individual obese mice) is −1.74% and −3.55% and −4.33% and −6.05% and −3.48% and −2.08% and −2.95% and −3.79% and −3.70% and −4.46%. For the setting “Day 6, group mean of 10 mice”, the “Body weight change percentage, Mean” value is −3.95%. In addition, the “Body weight change percentage” value (Day 6, individual obese mice) is −4.08% and −3.06% and −2.56% and −6.31% and −5.17% and −2.35% and −3.21% and −2.60% and −5.09% and −5.08%. The “Body weight change percentage, Mean” value (Day 7, group mean of 10 mice) is −4.08%. Also, the “Body weight change percentage” value (Day 7, individual obese mice) is −3.81% and −2.10% and −5.25% and −6.56% and −6.62% and −2.35% and −2.20% and −3.79% and −4.26% and −3.84%.

As for `OCC1OC2c3c(ccc4c3OC=C(c3ccc(O)cc3)C4O)OC2C(O)C1O` (centres unmarked) [puerarin derivative-3], the “Effect on TG (lipid) absorption” value was “inhibiting the small intestinal lipid absorption”; the “Effect on blood lipid level” value is listed as “reducing blood lipid”; the “Effect on body weight of the obese mouse” value is “reducing blood lipid and body weight”. Moreover, the “Body weight change curve, Mean” value (Day 0, group mean of 8 mice, puerarin derivative-3) turned out to be 0.00%. Also, under “Day 0, individual obese mice, puerarin derivative-3”, the “Body weight change curve” value is recorded as 0.00%. Also, the “Body weight change curve, Mean” value (Day 1, group mean of 8 mice, puerarin derivative-3) is on record as −2.37%. Also, the “Body weight change curve” value (Day 1, individual obese mice, puerarin derivative-3) was −3.96% and −2.50% and −1.71% and −2.35% and −2.28% and −0.26% and −2.59% and −3.32%. Also, the “Body weight change curve, Mean” value (Day 2, group mean of 8 mice, puerarin derivative-3) was −3.16%. For the same molecule, the “Body weight change curve” value (Day 2, individual obese mice, puerarin derivative-3) is −5.57% and −1.65% and −3.77% and −2.65% and −4.06% and −0.80% and −2.88% and −3.90%. Also, the “Body weight change curve, Mean” value (Day 3, group mean of 8 mice, puerarin derivative-3) is recorded as −3.01%. Moreover, where the note is “Day 3, individual obese mice, puerarin derivative-3”, the “Body weight change curve” value is −1.49% and −2.50% and −4.68% and −2.65% and −4.36% and −1.34% and −2.88% and −4.19%. In addition, the “Body weight change curve, Mean” value (Day 4, group mean of 8 mice, puerarin derivative-3) is −3.76%. Further, the “Body weight change curve” value (Day 4, individual obese mice, puerarin derivative-3) was −2.09% and −3.65% and −6.24% and −2.65% and −3.76% and −1.07% and −4.39% and −6.27%. Under “Day 5, group mean of 8 mice, puerarin derivative-3”, the “Body weight change curve, Mean” value is −4.10%. Moreover, under “Day 5, individual obese mice, puerarin derivative-3”, the “Body weight change curve” value was −3.02% and −3.65% and −6.24% and −2.65% and −4.06% and −1.88% and −5.00% and −6.27%. For the same molecule, the “Body weight change curve, Mean” value (Day 6, group mean of 8 mice, puerarin derivative-3) is on record as −4.33%. Besides, the “Body weight change curve” value (Day 6, individual obese mice, puerarin derivative-3) was −3.33% and −5.13% and −6.24% and −2.65% and −3.46% and −4.41% and −2.88% and −6.57%. Besides, the “Body weight change curve, Mean” value (Day 7, group mean of 8 mice, puerarin derivative-3) is −5.42%. Moreover, the “Body weight change curve” value (Day 7, individual obese mice, puerarin derivative-3) was −5.24% and −6.65% and −7.51% and −3.26% and −3.76% and −4.13% and −5.93% and −6.88%. Under setting [1], the “Blood lipid level, Mean” value stood at 1.2750 mM and the “Jejunal TG level, Mean” value stood at 1.2900 μmol/mg/protein. In addition, under “puerarin derivative-3 group”, the Blood lipid level was 1.62 mM and 1.06 mM (2×) and 1.69 mM and 1.23 mM and 1.07 mM and 1.29 mM and 1.18 mM; the “Jejunal TG level” value was 1.29 μmol/mg/protein and 1.48 μmol/mg/protein (2×) and 1.36 μmol/mg/protein and 1.27 μmol/mg/protein and 1.53 μmol/mg/protein and 1.06 μmol/mg/protein and 0.85 μmol/mg/protein.

With `Cc1ccc(-c2coc3c(C4OC(CO)C(O)C(O)C4O)c(O)ccc3c2=O)cc1` (centres unmarked) [puerarin derivative-2], the “Effect on TG (lipid) absorption” value is listed as “inhibiting the small intestinal lipid absorption”; the “Effect on blood lipid level” value is listed as “reducing blood lipid”; the “Effect on body weight of the obese mouse” value is “reducing blood lipid and body weight”. Also, where the note is “Day 0, group mean of 10 mice, puerarin derivative-2”, the “Body weight change curve, Mean” value is 0.00%. For the same molecule, the “Body weight change curve” value (Day 0, individual obese mice, puerarin derivative-2) was 0.00%. Besides, where the note is “Day 1, group mean of 10 mice, puerarin derivative-2”, the “Body weight change curve, Mean” value is recorded as −1.67%. Moreover, the “Body weight change curve” value (Day 1, individual obese mice, puerarin derivative-2) is −2.39% and −0.56% and −1.13% and −2.22% and 0.90% and −2.19% and −0.28% and −2.70% and −2.55% and −3.57%. Further, the “Body weight change curve, Mean” value (Day 2, group mean of 10 mice, puerarin derivative-2) is given as −2.33%. In addition, the “Body weight change curve” value (Day 2, individual obese mice, puerarin derivative-2) was −2.74% and −2.26% and −1.99% and −4.21% and 0.60% and −2.75% and −0.84% and −2.15% and −2.88% and −4.10%. In addition, the “Body weight change curve, Mean” value (Day 3, group mean of 10 mice, puerarin derivative-2) is on record as −2.88%. For the setting “Day 3, individual obese mice, puerarin derivative-2”, the “Body weight change curve” value is −2.74% and −3.43% and −3.16% and −4.55% and 0.00% and −2.75% and −1.41% and −3.55% and −2.88% and −4.37%. Moreover, the “Body weight change curve, Mean” value (Day 4, group mean of 10 mice, puerarin derivative-2) is reported as −3.46%. Also, the “Body weight change curve” value (Day 4, individual obese mice, puerarin derivative-2) is −2.74% and −3.73% and −3.16% and −3.87% and −0.91% and −3.89% and −1.13% and −4.40% and −4.21% and −6.57%. For the same molecule, the “Body weight change curve, Mean” value (Day 5, group mean of 10 mice, puerarin derivative-2) is on record as −3.68%. The “Body weight change curve” value (Day 5, individual obese mice, puerarin derivative-2) was −2.74% and −4.03% and −3.76% and −4.21% and −0.61% and −3.89% and −1.99% and −4.11% and −4.89% and −6.57%. Also, the “Body weight change curve, Mean” value (Day 6, group mean of 10 mice, puerarin derivative-2) was −3.68%. Further, the “Body weight change curve” value (Day 6, individual obese mice, puerarin derivative-2) is −2.74% and −4.03% and −3.16% and −3.54% and −0.91% and −4.47% and −4.67% and −3.55% and −2.88% and −6.85%. For the same molecule, the “Body weight change curve, Mean” value (Day 7, group mean of 10 mice, puerarin derivative-2) is recorded as −3.98%. In addition, the “Body weight change curve” value (Day 7, individual obese mice, puerarin derivative-2) was −3.45% and −2.26% and −2.57% and −3.87% and −2.15% and −5.66% and −4.37% and −2.43% and −5.93% and −7.13%. Also, under setting [2], the “Blood lipid level, Mean” value came to 1.0006 mM and the “Jejunal TG level, Mean” value worked out at 1.3072 μmol/mg/protein. Also, where the note is “puerarin derivative-2 group”, the Blood lipid level was 1.0874 mM and 1.0496 mM and 0.6903 mM and 0.8792 mM and 0.6729 mM and 1.3428 mM and 0.9551 mM and 1.1631 mM and 1.1347 mM and 1.0307 mM; the “Jejunal TG level” value was 1.7043 μmol/mg/protein and 1.5325 μmol/mg/protein and 1.5551 μmol/mg/protein and 1.3572 μmol/mg/protein and 1.1252 μmol/mg/protein and 1.1433 μmol/mg/protein and 1.3121 μmol/mg/protein and 1.0924 μmol/mg/protein and 1.2506 μmol/mg/protein and 0.9988 μmol/mg/protein.
